Data from ChEMBL document CHEMBL4402526, “Design and Synthesis of Fungal-Selective Resorcylate Aminopyrazole Hsp90 Inhibitors” (J Med Chem, 2020).
The source made the active and inactive calls.

Experiments:
[1] = Displacement of Cy3-labeled geldanamycin from HSP90 in Candida albicans clinical isolate 2 cell lysate measured after […] by fluorescence polarization assay; format: subcellular
Cryptococcus neoformans [2] = assay: Antifungal activity against Cryptococcus neoformans H99 assessed as fungal growth inhibition at <= […] uM measured after 48 hrs by resazurin assay; format: functional, organism-based
Candida albicans [3] = assay: Antifungal activity against Candida albicans clinical isolate 2 assessed as fungal growth inhibition at <= […] uM measured after 48 hrs by resazurin assay; format: functional, organism-based
[4] = Half life in CD-1 mouse liver microsomes at 1 uM measured up to 120 mins by LC-MS/MS analysis
[5] = Microsomal stability in CD-1 mouse liver microsomes assessed as parent compound remaining at 1 uM measured at 60 mins by LC-MS/MS analysis; format: ADME, Microsome; conditions: read-out: Stability
[6] = Selectivity index, ratio of kd for binding affinity to recombinant human Hsp90 NBD expressed in Escherichia coli Rosetta2 to Kd for binding affinity to recombinant Candida albicans clinical isolate 2 HSP90 NBD (E7 to K218 residues) expressed in Escherichia coli Rosetta2
Candida albicans [7] = assay: Fungicidal activity against Candida albicans clinical isolate 2 incubated for 48 hrs in presence of fluconazole followed by replating on YDP agar plate and measured after 24 hrs; format: functional, organism-based
Cryptococcus neoformans [8] = assay: Antifungal activity against Cryptococcus neoformans H99 assessed as fungal growth inhibition at < […] uM measured after 48 hrs by resazurin assay; format: functional, organism-based
Candida albicans [9] = assay: Antifungal activity against Candida albicans clinical isolate 2 assessed as fungal growth inhibition measured after 48 hrs in presence of fluconazole by resazurin assay; format: functional; conditions: clinical isolate 2, 48 h

| EC50 [1] | half-life at 2 h, 1 µM [4] | remaining at 1 h, 1 µM [5] | Selectivity Index [6] | SMILES | Activity (Cryptococcus neoformans [2]) | Activity (Candida albicans [3]) | Activity (Candida albicans [7]) | Activity (Cryptococcus neoformans [8]) | MIC (Candida albicans [9]) |
| --- | --- | --- | --- | --- | --- | --- | --- | --- | --- |
| > 6 µM | – | – | – | COc1ccc(Cn2nc(C)cc2Nc2cc(O)cc(O)c2C(=O)N(C)Cc2ccccc2)cc1 | Active | Active | – | – | – |
| > 9 µM | – | – | – | COc1ccc(Cn2nc(C)cc2Nc2cc(O)cc(O)c2C(=O)N(C)CC2CC2)cc1 | Active | Active | – | – | – |
| – | 3.44 min | 0% | – | COc1cccc(-c2cc(Nc3cc(O)cc(O)c3C(=O)N3Cc4cccnc4C3)n(C)n2)c1 | Active | Active | – | – | – |
| – | 6.44 min | 0.5% | – | Cn1nc(-c2ccc(C(C)(C)C)cc2)cc1Nc1cc(O)cc(O)c1C(=O)N1Cc2cn[nH]c2C1 | Active | Active | – | – | – |
| – | – | 3.9% | – | Cn1nc(-c2ccc(OC(F)(F)F)cc2)cc1Nc1cc(O)cc(O)c1C(=O)N1Cc2cccnc2C1 | Active | Active | – | – | – |
| – | – | – | > 25 | COc1ccc(CO\N=C2/C=C/C=C\[C@H]3O[C@@H]3C[C@@H](C)OC(=O)c3c(O)cc(O)cc3C2)cc1 | – | – | – | – | – |
| – | 9.38 min | 1.8% | – | Cc1cccc(-c2cc(Nc3cc(O)cc(O)c3C(=O)N3Cc4cn[nH]c4C3)n(C)n2)c1 | Active | Active | – | – | – |
| – | 3.1 min | 1.8% | – | CC(C)c1ccc(Cn2nccc2Nc2cc(O)cc(O)c2C(=O)N2Cc3ccccc3C2)cc1 | Active | Active | – | – | – |
| – | – | 7% | – | COc1cccc(-c2cc(Nc3cc(O)cc(O)c3C(=O)N3Cc4cn[nH]c4C3)n(C)n2)c1 | Active | Active | – | – | – |
| > 9 µM | – | – | – | COc1ccc(Cn2nc(-c3ccccc3)cc2Nc2cc(O)cc(O)c2C(=O)N(C)CC2CC2)cc1 | Active | Active | – | – | – |

Second part, the molecule before the results:

| SMILES | EC50 [1] | half-life at 2 h, 1 µM [4] | remaining at 1 h, 1 µM [5] | Selectivity Index [6] | Activity (Cryptococcus neoformans [2]) | Activity (Candida albicans [3]) | Activity (Candida albicans [7]) | Activity (Cryptococcus neoformans [8]) | MIC (Candida albicans [9]) |
| --- | --- | --- | --- | --- | --- | --- | --- | --- | --- |
| Cn1nc(C2CCCCC2)cc1Nc1cc(O)cc(O)c1C(=O)N1Cc2cn[nH]c2C1 | – | 2.74 min | 0.06% | – | Active | Active | – | – | – |
| COc1ccc(Cn2ncc(C)c2Nc2cc(O)cc(O)c2C(=O)N2Cc3ccccc3C2)cc1 | – | – | – | – | Active | Active | Active | – | – |
| Cc1ccccc1-c1cc(Nc2cc(O)cc(O)c2C(=O)N2Cc3ccccc3C2)n(C)n1 | – | – | – | – | Active | Active | – | Active | – |
| Cn1nc(-c2ccc(OC(F)(F)F)cc2)cc1Nc1cc(O)cc(O)c1C(=O)N1Cc2ccccc2C1 | – | – | – | – | Active | Active | – | – | 12.5 µM |
| CCN(CC)C(=O)c1c(O)cc(O)cc1Nc1cc(-c2ccccc2)nn1Cc1ccc(OC)cc1 | > 10 µM | – | – | – | Active | Active | – | – | – |
| COc1ccc(Cn2nc(-c3ccccc3)cc2Nc2cc(O)cc(O)c2C(=O)N2Cc3ccccc3C2)cc1 | – | – | – | – | Active | Active | Active | – | – |
| Cc1cc(Nc2cc(O)cc(O)c2C(=O)N2Cc3ccccc3C2)n(Cc2ccccc2Cl)n1 | – | – | – | – | Active | Active | Active | – | – |
| COc1cccc(-c2cc(Nc3cc(O)cc(O)c3C(=O)N3Cc4ccccc4C3)n(C)n2)c1 | – | 3.15 min | 0% | – | Active | Active | – | – | – |
